Laboratory results taken from patent publication US9062041B2 (Bayer Intellectual Property GmbH, priority 2011, dated 2015).

Assays:
Type in all cases: cell-based
[1] = biological target: EP2 subtype of the human PGE2 receptor (Homo sapiens, UniProt P43116); assay: cAMP antagonism test on the human EP2 receptor (HTRF cAMP detection); settings: hEP2 receptor, read-out: Antagonism hEP2 IC50
Method in brief: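 Cells expressing human EP2 preincubated 20 min at RT with compound (0.8 nM–16.5 μM), then stimulated 60 min with PGE2 (3× solution 1.5 nM) in PBS-IBMX. After 20 min lysis, cAMP measured by competitive HTRF with cAMP-d2 and Eu cryptate anti-cAMP antibody (665/620 nm ratio).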

[2] = biological target: EP4 subtype of the human PGE2 receptor (Homo sapiens, UniProt P35408); assay: cAMP antagonism test on the human EP4 receptor (HTRF cAMP detection); settings: selectivity towards hEP4, IC50 measured by cAMP antagonism test
EP4 subtype of the human PGE2 receptor, sequence (P35408 whole entry): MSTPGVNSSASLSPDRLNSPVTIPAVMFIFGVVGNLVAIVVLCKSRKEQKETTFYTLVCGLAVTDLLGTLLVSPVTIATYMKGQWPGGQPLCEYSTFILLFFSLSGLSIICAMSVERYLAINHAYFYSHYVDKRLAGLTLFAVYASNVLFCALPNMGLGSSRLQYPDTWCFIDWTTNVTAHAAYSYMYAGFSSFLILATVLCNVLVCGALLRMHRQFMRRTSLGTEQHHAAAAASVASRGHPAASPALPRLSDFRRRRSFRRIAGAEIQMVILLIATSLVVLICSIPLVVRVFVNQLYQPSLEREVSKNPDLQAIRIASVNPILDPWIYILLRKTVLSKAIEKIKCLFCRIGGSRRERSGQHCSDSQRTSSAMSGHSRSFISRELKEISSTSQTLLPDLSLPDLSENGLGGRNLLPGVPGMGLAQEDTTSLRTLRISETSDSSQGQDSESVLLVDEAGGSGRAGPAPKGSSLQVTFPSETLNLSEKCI
Method in brief: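 Cells expressing human EP4 preincubated 20 min at RT with compound (0.8 nM–16.5 μM), then stimulated with PGE2 (0.3 nM in 3× solution, with IBMX) 60 min at RT. After lysis, cAMP measured by HTRF competition (665/620 nm ratio); antagonism seen as rise in FRET signal.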

human PGD receptor = biological target: T1, human PGD receptor (Homo sapiens, UniProt Q13258); assay: cAMP antagonism test on the human prostaglandin D receptor (HTRF cAMP detection); settings: selectivity towards hDP, IC50 measured by cAMP antagonism test
T1 sequence (Q13258 1-359): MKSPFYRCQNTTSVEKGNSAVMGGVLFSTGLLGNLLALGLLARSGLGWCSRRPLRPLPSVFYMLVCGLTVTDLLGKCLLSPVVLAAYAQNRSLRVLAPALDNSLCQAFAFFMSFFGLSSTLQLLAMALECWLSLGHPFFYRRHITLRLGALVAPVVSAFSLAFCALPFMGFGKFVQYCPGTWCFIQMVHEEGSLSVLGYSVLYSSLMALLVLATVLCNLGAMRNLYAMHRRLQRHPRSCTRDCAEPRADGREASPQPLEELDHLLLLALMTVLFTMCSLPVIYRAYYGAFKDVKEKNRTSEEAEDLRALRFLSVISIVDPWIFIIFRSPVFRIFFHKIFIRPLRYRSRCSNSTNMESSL
Method in brief: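 Cells pre-mixed with cAMP-d2 were preincubated with compound (0.8 nM–16.5 μM) for 20 min at RT, then stimulated with 3× PGD2 solution (6 nM, in PBS-IBMX) for 30 min at RT. After lysis (20 min), HTRF read at 665/620 nm; antagonism seen as rise in FRET ratio.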

EP2 subtype of the human PGE2 receptor, sequence (P43116 whole entry): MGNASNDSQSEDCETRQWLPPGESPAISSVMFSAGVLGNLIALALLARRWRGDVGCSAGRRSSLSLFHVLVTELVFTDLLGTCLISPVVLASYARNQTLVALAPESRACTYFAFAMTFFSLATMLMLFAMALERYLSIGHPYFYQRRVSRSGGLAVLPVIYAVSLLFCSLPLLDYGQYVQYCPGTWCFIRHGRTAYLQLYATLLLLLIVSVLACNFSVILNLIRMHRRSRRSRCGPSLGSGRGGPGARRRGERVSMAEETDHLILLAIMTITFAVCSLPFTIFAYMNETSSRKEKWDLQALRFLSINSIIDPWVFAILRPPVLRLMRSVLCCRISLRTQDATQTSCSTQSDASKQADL

Row | Compound | IC50 [1] | Selectivity hEP2/hEP4 [2] | Selectivity hEP2/hDP (human PGD receptor)
1 | COCCNC(=O)c1ccc2nn(CC3CCN(C(=O)c4ccc(Oc5ccc(Cl)cc5)cc4)CC3)cc2c1C [Example 14, 2-({1-[4-(4-chloro-phenoxy)benzoyl]-piperidin-4-yl}-methyl)-N-(2-methoxyethyl)-4-methyl-2H-indazol-5-carboxamide] | 3.67 nM | xxx (xxx > 100) | xxx (xxx > 100)
2 | COCCNC(=O)c1ccc2nn(CC3CCN(C(=O)c4ccc(-c5ccc(C(C)(C)O)cc5)cc4)CC3)cc2c1C [Example 388, 2-[(1-{[4′-(1-hydroxy-1-methylethyl)biphenyl-4-yl]carbonyl}piperidin-4-yl)-methyl]-N-(2-methoxyethyl)-4-methyl-2H-indazol-5-carboxamide] | 20.5 nM | xxx (xxx > 100) | xxx (xxx > 100)
3 | Cc1c(C(=O)NCC(F)(F)F)ccc2nn(CC3CCN(C(=O)c4ccc(Cl)cc4)CC3)cc12 [Example 72, 2-{[1-(4-chlorobenzoyl)piperidin-4-yl]methyl}-4-methyl-N-(2,2,2-trifluoroethyl)-2H-indazol-5-carboxamide] | 120 nM | xxx (xxx > 100) | xxx (xxx > 100)
4 | Cc1c(C(=O)NCCOCC(F)(F)F)ccc2nn(CC3CN(C(=O)c4ccc(Cl)cc4)C3)cc12 [Example 162, 2-{[1-(4-chlorobenzoyl)azetidin-3-yl]methyl}-4-methyl-N-[2-(2,2,2-trifluoro-ethoxy)ethyl]-2H-indazol-5-carboxamide] | 9.33 nM | xxx (xxx > 100) | xxx (xxx > 100)
5 | CCOCCNC(=O)c1ccc2nn(CC3CN(C(=O)c4ccc(Cl)cc4)C3)cc2c1OC [Example 259, 2-{[1-(4-chlorobenzoyl)azetidin-3-yl]methyl}-N-(2-ethoxyethyl)-4-methoxy-2H-indazol-5-carboxamide] | 25.6 nM | xxx (xxx > 100) | xxx (xxx > 100)
6 | COCCNC(=O)c1cc2cn(CC3CCN(C(=O)c4cn(C)c5ccccc45)CC3)nc2cc1C [Example 281, N-(2-methoxyethyl)-6-methyl-2-({1-[(1-methyl-1H-indol-3-yl)carbonyl]-piperidin-4-yl}methyl)-2H-indazol-5-carboxamide] | 23 nM | xxx (xxx > 100) | xxx (xxx > 100)
7 | O=C(NCCOCC1CC1)c1ccc2nn(CC3CCN(C(=O)c4ccc(-c5ccc(F)cc5)cc4)CC3)cc2c1OCC(F)(F)F [Example 237, N-[2-(cyclopropylmethoxy)ethyl]-2-({1-[(4′-fluorobiphenyl-4-yl)carbonyl]piperidin-4-yl}methyl)-4-(2,2,2-trifluoroethoxy)-2H-indazol-5-carboxamide] | 31 nM | xxx (xxx > 100) | xxx (xxx > 100)
8 | Cc1c(C(=O)NCC(C)C)ccc2nn(CC3CCN(C(=O)c4ccc(Cl)cc4)CC3)cc12 [Example 243, 2-{[1-(4-chlorobenzoyl)piperidin-4-yl]methyl}-N-isobutyl-4-methyl-2H-indazol-5-carboxamide] | 335 nM | xx (xx: 10-100) | xx (xx: 10-100)
9 | COc1c(C(=O)NCCSC(F)(F)F)ccc2nn(CC3CCN(C(=O)c4ccc(Cl)cc4)CC3)cc12 [Example 265, 2-{[1-(4-chlorobenzoyl)piperidin-4-yl]methyl}-4-methoxy-N-{2-[(trifluoromethyl)sulphanyl]ethyl}-2H-indazol-5-carboxamide] | 31.5 nM | xxx (xxx > 100) | xxx (xxx > 100)
10 | Cc1cc2nn(CC3CCN(C(=O)c4ccc(S(F)(F)(F)(F)F)cc4)CC3)cc2cc1C(=O)NCCN1CCOCC1 [Example 77, 6-methyl-N-(2-morpholinoethyl)-2-({1-[4-(pentafluoro-λ^6-sulphanyl)benzoyl]piperidin-4-yl}methyl)-2H-indazol-5-carboxamide] | 53.9 nM | xxx (xxx > 100) | xxx (xxx > 100)
11 | Cc1cc2nn(CC3CN(C(=O)c4ccc(Cl)cc4)C3)cc2cc1C(=O)NCCSC(F)(F)F [Example 189, 2-{[1-(4-chlorobenzoyl)azetidin-3-yl]methyl}-6-methyl-N-{2-[(trifluoromethyl)sulphanyl]ethyl}-2H-indazol-5-carboxamide] | 33.6 nM | xxx (xxx > 100) | xxx (xxx > 100)
12 | COCCNC(=O)c1ccc2nn(CC3CN(C(=O)c4cc5cc(OC)ccc5n4C)C3)cc2c1C [Example 172, N-(2-methoxyethyl)-2-({1-[(5-methoxy-1-methyl-1H-indol-2-yl)carbonyl]azetidin-3-yl}methyl)-4-methyl-2H-indazol-5-carboxamide] | 3.16 nM | xxx (xxx > 100) | xxx (xxx > 100)
13 | Cc1c(C(=O)NCC(F)(F)F)ccc2nn(CC3CN(C(=O)c4ccc(Oc5ccc(F)cc5)cc4)C3)cc12 [Example 160, 2-({1-[4-(4-fluorophenoxy)benzoyl]azetidin-3-yl}methyl)-4-methyl-N-(2,2,2-trifluoroethyl)-2H-indazol-5-carboxamide] | 82.9 nM | xxx (xxx > 100) | xxx (xxx > 100)
14 | Cc1c(C(=O)NCC(F)(F)F)ccc2nn(CC3CCN(C(=O)c4ccc(Oc5cccc(F)c5)cc4)CC3)cc12 [Example 307, 2-({1-[4-(3-fluorophenoxy)benzoyl]piperidin-4-yl}methyl)-4-methyl-N-(2,2,2-trifluoroethyl)-2H-indazol-5-carboxamide] | 30.6 nM | xxx (xxx > 100) | xxx (xxx > 100)
15 | COCCNC(=O)c1ccc2nn(CC3CN(C(=O)c4ccc(C5CC5)cc4)C3)cc2c1C [Example 124, 2-{[1-(4-cyclopropylbenzoyl)azetidin-3-yl]methyl}-N-(2-methoxyethyl)-4-methyl-2H-indazol-5-carboxamide] | 7.99 nM | xxx (xxx > 100) | xxx (xxx > 100)
16 | Cc1c(C(=O)NCC2CCCCO2)ccc2nn(CC3CCN(C(=O)c4ccc(Cl)cc4)CC3)cc12 (single isomer, unassigned) [Example 241, (S or R)-2-{[1-(4-chlorobenzoyl)piperidin-4-yl]methyl}-4-methyl-N-(3,4,5,6-tetrahydro-2H-pyran-2-ylmethyl)-2H-indazol-5-carboxamide] | 9.03 nM | xxx (xxx > 100) | xxx (xxx > 100)
17 | COCCNC(=O)c1cc2cn(CC3CCN(C(=O)c4ccc(C(F)(F)F)cc4)CC3)nc2cc1C [Example 211, N-(2-methoxyethyl)-6-methyl-2-({1-[4-(trifluoromethyl)benzoyl]piperidin-4-yl}-methyl)-2H-indazol-5-carboxamide] | 50.1 nM | xxx (xxx > 100) | xxx (xxx > 100)
18 | Cc1c(C(=O)NCC(C)OC2CCC2)ccc2nn(CC3CN(C(=O)c4ccc(Cl)cc4)C3)cc12 (single isomer, unassigned) [Example 155, (S or R)-2-{[1-(4-chlorobenzoyl)azetidin-3-yl]methyl}-N-[2-(cyclobutyloxy)-propyl]-4-methyl-2H-indazol-5-carboxamide] | 29.4 nM | xxx (xxx > 100) | xxx (xxx > 100)
19 | Cc1c(C(=O)NCC(F)(F)F)ccc2nn(CC3CCN(C(=O)c4ccc(N5CCOCC5)cc4)CC3)cc12 [Example 287, 4-methyl-2-{[1-(4-morpholinobenzoyl)piperidin-4-yl]methyl}-N-(2,2,2-trifluoro-ethyl)-2H-indazol-5-carboxamide] | 1050 nM | xx (xx: 10-100) | xx (xx: 10-100)
20 | CCNC(=O)c1ccc2nn(CC3CCN(C(=O)c4ccc(Cl)cc4)CC3)cc2c1C [Example 242, 2-{[1-(4-chlorobenzoyl)piperidin-4-yl]methyl}-N-ethyl-4-methyl-2H-indazol-5-carboxamide] | 305 nM | xx (xx: 10-100) | xx (xx: 10-100)
21 | COCCNC(=O)c1ccc2nn(CC3CN(C(=O)c4ccc5ccc(OC)cc5c4)C3)cc2c1C [Example 175, N-(2-methoxyethyl)-2-{[1-(7-methoxy-2-naphthoyl)azetidin-3-yl]methyl}-4-methyl-2H-indazol-5-carboxamide] | 8.05 nM | xxx (xxx > 100) | xxx (xxx > 100)
